The text below walks through data of patent US20260294964A1, “PHARMACEUTICALS CONTAINING CHELATORS WITH STRONG ZN IONS-HOLDING FEATURE FOR THE TREATMENT OF SYMPTOMS AND DISEASES CAUSED BY MICROORGANISMS/DISEASES CAUSED BY TOXINS OR NEUROTOXINS/CANCER/SEVERAL SYNDROMES” (priority 2023, published 2026).

The subject of series [1] is microorganisms that decompose organic matter (bacteria/fungi). The series can be described thus: Culture of microorganisms that decompose organic matter. Type of series: cell-based. The note with it: for concentration in culture medium at which microorganisms multiply strongly: microorganisms that decompose organic matter (bacteria/fungi).
Series [2] deals with pathogenic microorganisms. The series can be described thus: Inhibition/killing of pathogenic microorganisms in water with Boraras Micros fish infected from dead fish. Type of series: in vivo.
A short description of series [3]: Metallic Cu suspension test with 1% Na ascorbate (Cu ion complex formation). Type of series: physicochemical. The note with it: with 0.1% CuCl2; excess 1% Na ascorbate. An excerpt: In an environment containing water in the body of organisms/host bodies (host is animal/human) such as in blood/tissue fluid/alveolar fluid/intracellular fluid . . . ) in conditions where the body is depleted of chelators with [Zn ions/other transition metal ions]-holding (such as the amount of chelators with [Zn ions/other transition metal ions]-holding remains is not significant in the patient's body), Cu ions will attach to [Fe ions in metalloproteins of [host cells/red blood cells/alveolar cells], causing these cells to lose the ability to exchange O2, causing symptoms of acute respiratory failure (not due to lung infection), and this symptom is very dangerous because it can quickly lead to death. Among the bond forces between Cu ions and other metal ions, the bond force of the Cu ion-Fe ion complex is the strongest, can recognize the existence of Cu ion-ion Fe ion complex/Cu ion-Zn ion complex/Cu ion-Mg ion complex/Cu ion-Ca ion complex, and can recognize Cu ion-other metal ion bonds, in which the Cu ion-Fe ion bond is the bond type with the highest magnitude through experiments conducted in water environment (water environment without chelators with [Zn ions/other transition metal ions]-holding) is the environment that simulates the blood environment/alveolar fluid environment of a host with the depletion of these chelators), these experiments were performed by adding an excess amount of 1% Na ascorbate solution to the test tube containing the solution with [0.1 % CuCl2+greater than 0.2% FeCl3]/the test tube containing the solution containing [0.1 % CuCl2+greater than 0.6% ZnCl2]/the test tube containing the solution containing [0.1 % CuCl2+greater than 0.63% MgCl2]/the test tube containing the solution conatining [0 .

Series [4] concerns Boraras Micros fish. The note with it: for toxicity / safety to host cells: in words, from fish experiments; for time to death of fish: 300 ppm EDTA disodium, 800 ppm EDTA Na; for death of fish: 1000 ppm Na2 EDTA / 0.5 ppm CuCl2 / [0.3 ppm CuCl2+20 ppm ZnCl2].
Series [5] can be described thus: Metallic Cu suspension test with 1% Na ascorbate (Cu ion complex formation). Type of series: physicochemical. The following applies: 0.1% CuCl2, alone or with several percent of chelator; excess 1% Na ascorbate.
The format of series [6] is physicochemical, animal/human blood. The following applies: for volume that completely dissolves Zn-blood complex suspension: suspension from 1.4 ml 0.1% ZnCl2 in 100 ml 0.9% NaCl with 1% blood; for amount needed to completely dissolve Zn-blood complex suspension, compared with lysine phosphate/lysine chloride/arginine phosphate/arginine chloride: suspension with 2 ppm ZnCl2.

The test system of series [7] is sweet taste on the tongue. Nature of the series: Loss and recovery of sweet taste after Zn gluconate. Type of series: in vivo, human. The note with it: for recovery of sweet taste: 5% arginine glutamate / 0.5% triethylenetetramine glutamate, 10 seconds.
Series [8] relates to symptoms such as sore throat/cough/headache. Nature of the series: Symptoms generated by ZnCl2 in the throat and their relief. Type of series: in vivo, human. The note with it: for disappearance of ZnCl2-induced symptoms: few ml of 10% solution, oral.
A short description of series [9]: Voltage of metallic Zn-metallic Cu electrode pair in test tube. Type of series: physicochemical. The note with it: 0.9% NaCl+0.2 ppm CuCl2+0.4 ppm ZnCl2+0.6 FeCl3.
Series [10] relates to Boraras Micros fish. Nature of the series: Protection of Boraras Micros fish from CuCl2 by chelators. Type of series: in vivo. The note with it: 0.4 ppm CuCl2 + a few ppm to more than 10 ppm of chelator.
The test system of a further series is mice. Type of series: in vivo, mouse. The note with it: fed rat poison pills, normal water (control).
[11] abbreviates: 10 ppm Ampicillin / 20 ppm Bactrim / 100 ppm triethylenetetramine diethylenetriaminepentaacetate / 300 Mg EDTA / 600 ppm Ca EDTA / combinations as in label.
[12] abbreviates: 20 ppm Ampicillin / 40 ppm Bactrim.

Read-outs that look alike come from different tables or passages of the source.

As for `CC1(C)S[C@@H]2[C@H](NC(=O)[C@H](N)c3ccccc3)C(=O)N2[C@H]1C(=O)O` [Ampicillin, reference compound], in [1] (20 ppm Bactrim / 10 ppm Ampicillin, first 36 hours), the “inhibition of proliferation of microorganisms” value was “slightly inhibited”. The “appearance of water after 6 days” value in series [2] (setting [11]) and in series [2] (setting [12]) was “cloudy” throughout. For the same compound, the “fish outcome after 6 days” value in series [2] (setting [11]) is “died and all of fishes died”; in [2] (setting [12]) it was “died and all of fishes died”.

For `[Ca+2].[Cl-].[Cl-]` [CaCl2], the “concentration of second metal salt at which metallic Cu suspension will not appear” value in [3] is “greater than 0.65%”.

Regarding `[Cl][Cu][Cl]` [CuCl2], the “death of fish in CuCl2” value in the series on Boraras Micros fish [4] (0.4 ppm CuCl2) is given as “dying after a few hours”. Also, in series [5], the “appearance of metallic Cu suspension” value was “metallic Cu suspension will appear”. In the case of `O=C([O-])CN(CCN(CC(=O)O)CC(=O)O)CC(=O)[O-].[K+].[K+]` [EDTA dipotassium], in the series with Boraras Micros fish [4], the “toxicity / safety to host cells” value is “toxic to host cells”. In the case of `O=C([O-])CN(CCN(CC(=O)[O-])CC(=O)O)CC(=O)O.[Na+].[Na+]` [EDTA disodium], in the series on Boraras Micros fish [4], the “time to death of fish” value is recorded as “less than 24 hours”, the death of fish result is reported as “died within a few hours” and the “toxicity / safety to host cells” value was “quite toxic to host cells”. In addition, the death of fish entry in the series on Boraras Micros fish [4] (listed as 2 Na EDTA) was “died in a few hours”. Also, in the series with Boraras Micros fish [4] (listed as disodium EDTA), the “toxicity / safety to host cells” value was “highly toxic to healthy cells”. Turning to `[Cl][Fe]([Cl])[Cl]` [FeCl3], the “volume that completely dissolves Zn-blood complex suspension” value in series [6] (0.1% solution) came to 6 mL. In series [3], the “concentration of second metal salt at which metallic Cu suspension will not appear” value is reported as “greater than 0.2%”.

Consider `[Cl-].[Cl-].[Mg+2]` [MgCl2], for which, in [3], the “concentration of second metal salt at which metallic Cu suspension will not appear” value was “greater than 0.63%”. On to `O=C([O-])c1cc(O)c(O)c(O)c1.[Na+]` [Na gallate], for which, in [1], the “concentration in culture medium at which microorganisms multiply strongly” value (shortened to “concentration in culture medium”) is on record as 5 ppm.

As for `CN(C)C1CSSC1` [Nereistoxin], the “time to death of fish, toxin alone” value in the series on Boraras Micros fish [4] (in vivo) worked out at 30 min. For the compound `O=C([O-])[C@H](O)[C@@H](O)[C@H](O)[C@H](O)CO.O=C([O-])[C@H](O)[C@@H](O)[C@H](O)[C@H](O)CO.[Zn+2]` [Zn gluconate], the “sweet taste sensation after Zn” value in [7] (chewing and sucking 15 mg tablet, 120 seconds) was “completely lost”.

Regarding `[Cl-].[Cl-].[Zn+2]` [ZnCl2], in series [6] (0.01% blood), the “ZnCl2 concentration above which Zn-blood suspension begins to appear” value is recorded as “above 1.5 ppm” and the “ZnCl2 concentration at which suspension appears abundantly” value came to 2 ppm. For the same compound, the “volume of 0.1% ZnCl2 solution at which Zn-blood complex suspension begins to appear” value in series [6] (100 ml of 0.9% NaCl with 1% blood) was determined as 1.4 mL. Besides, the “concentration in culture medium” value in [1] is recorded as 12 ppm. Besides, the “appearance of symptoms (itchy throat/sore throat/cough/runny nose/body aches/slight fever/headache)” value in series [8] (2 ml of 0.4% ZnCl2 solution, 120 seconds) was “appear after a few minutes to a few hours”. In the case of `N=C(N)NCCC[C@H](N)C(=O)O.O=P(O)(O)O` [arginine phosphate], the “amount used to sharply reduce the voltage, compared with EDTA Mg/triethylenetetramine glutamate/triethylenetetramine diethylenetriaminepentaacetate” value in series [9] was “dozens of times greater”. The “volume that completely dissolves Zn-blood complex suspension” value in series [6] (10% solution) came to 2 mL. In [6] (synthetic: upper end printed 'more than 200 units'), the “units of [Zn ions/other transition metal ions] held by one unit of chelator” value was “one unit (or few units)”. Besides, the “survival of fish in CuCl2 with chelator” value with Boraras Micros fish [10] is recorded as “will not die after several weeks”. As for `N=C(N)NCCC[C@H](N)C(=O)O` [arginine, reference compound], the “appearance of metallic Cu suspension” value in series [5] is reported as “metallic Cu suspension will not appear”. In the case of `O=C([O-])CC(O)(CC(=O)[O-])C(=O)[O-].[Na+].[Na+].[Na+]` [citrate Na, Na citrate], the “concentration in culture medium” value in series [1] was 80 ppm.

Consider `O=c1oc2ccccc2c(O)c1C1CC(c2ccc(OCc3ccc(C(F)(F)F)cc3)cc2)Cc2ccccc21` (stereo not shown) [flocoumafen, reference compound], for which the “time to death of all mice” value in the series with mice is listed as “about 2 days”. The “time to death of fish, toxin alone” value with Boraras Micros fish [4] (1.25 ppm flocoumafen / 0.3 ppm Bromadiolone / 0.2 ppm Methylamine Avermectin) turned out to be 2160 min. `NCCCC[C@H](N)C(=O)O.O=P(O)(O)O` [lysine phosphate, reference compound]: in the series with Boraras Micros fish [10], the “survival of fish in CuCl2 with chelator” value was “will not die after several weeks”.

As for `NCCCC[C@H](N)C(=O)O` [lysine, reference compound], the “appearance of metallic Cu suspension” value in [5] is listed as “metallic Cu suspension will not appear”.

On to `O=C([O-])CC(O)C(=O)[O-].[Na+].[Na+]` (stereo not shown) [malate Na, Na malate], for which, in [1], the “concentration in culture medium” value was 80 ppm. On the same count and under the same terms, the value for `O=C([O-])CCC(=O)[O-].[Na+].[Na+]` [succinate Na, Na succinate] was 80 ppm. For the compound `NCCNCCNCCN` [triethylenetetramine, Triethylenetetramine, reference compound], the “appearance of metallic Cu suspension” value in series [5] is recorded as “metallic Cu suspension will not appear”. “Diethylenetriaminepentaacetic acid calcium [Ca DTPA]”: the “toxicity / safety to host cells” value in the series on Boraras Micros fish [4] is given as “highly safe”. For the same compound, the “survival of fish in CuCl2 with chelator” value in the series with Boraras Micros fish [10] was “will not die after several weeks”. On to “Diethylenetriaminepentaacetic acid magnesium [Mg DTPA]”, for which the “appearance of metallic Cu suspension” value in series [5] is listed as “metallic Cu suspension will not appear”. In the series with Boraras Micros fish [10], the “survival of fish in CuCl2 with chelator” value is given as “will not die after several weeks”. As to EDTA Na, the “time to death of fish” value in the series on Boraras Micros fish [4] is at most 24 h. As to Na tannate Na, in series [1], the “concentration in culture medium” value is recorded as 30 ppm. Take arginine ascorbate: the “volume that completely dissolves Zn-blood complex suspension” value in series [6] (concentration of solution not given) was 0.7 mL. For the compound arginine glutamate, in series [7], the “recovery of sweet taste” value is given as “fully recovered”. Further, the “amount used to sharply reduce the voltage, compared with EDTA Mg/triethylenetetramine glutamate/triethylenetetramine diethylenetriaminepentaacetate” value in [9] is “dozens of times greater”. The “volume that completely dissolves Zn-blood complex suspension” value in series [6] (10% solution) stood at 1.0 mL.

On to “pentaethylenehexamine diethylenetriaminepentaacetate”, for which the “amount needed to completely dissolve Zn-blood complex suspension, compared with lysine phosphate/lysine chloride/arginine phosphate/arginine chloride” value in series [6] was “tens to hundreds of times lower”. The same measure, in the same setting: the result for “tetraethylenepentamine diethylenetriaminepentaacetate” reads “tens to hundreds of times lower”. Regarding triethylenetetramine ascorbate, the “disappearance of ZnCl2-induced symptoms” value in series [8] was “gradually disappear after a few hours”.

Regarding triethylenetetramine gluconate, the “amount needed to completely dissolve Zn-blood complex suspension, compared with lysine phosphate/lysine chloride/arginine phosphate/arginine chloride” value in series [6] is reported as “tens to hundreds of times lower”.

Regarding triethylenetetramine glutamate, in [7], the “recovery of sweet taste” value is on record as “fully recovered”. Besides, the “appearance of metallic Cu suspension” value in series [5] is reported as “metallic Cu suspension will not appear”. Besides, the “disappearance of ZnCl2-induced symptoms” value in series [8] is reported as “gradually disappear after a few hours”.
